Legend:
Plasmodium falciparum = details: P. falciparum growth inhibition, cited from earlier work; for IC50: read-out: IC50 (cell)
[1] = biological target: T1, P. vivax FPPS (farnesyl diphosphate synthase) (Plasmodium vivax, UniProt A5K4U6); assay: P. vivax FPPS inhibition, continuous spectrophotometric phosphate release assay; type: biochemical; details: pIC50 (enzyme)
T1 sequence (A5K4U6 1-375): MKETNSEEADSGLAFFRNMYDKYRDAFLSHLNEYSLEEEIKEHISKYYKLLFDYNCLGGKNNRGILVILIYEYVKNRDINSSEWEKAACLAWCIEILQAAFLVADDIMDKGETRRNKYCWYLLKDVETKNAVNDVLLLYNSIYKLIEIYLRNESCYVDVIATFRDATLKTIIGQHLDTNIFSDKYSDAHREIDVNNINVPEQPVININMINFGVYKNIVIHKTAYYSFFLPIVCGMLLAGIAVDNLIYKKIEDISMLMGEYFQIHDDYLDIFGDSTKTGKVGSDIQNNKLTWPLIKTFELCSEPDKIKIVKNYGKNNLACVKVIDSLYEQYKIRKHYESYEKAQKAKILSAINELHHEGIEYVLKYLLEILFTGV

[2] = FPPS from Plasmodium vivax, pIC50 = −log10 IC50

Row | Compound | pIC50 (cell) (Plasmodium falciparum) | IC50 [1, 2] [µM] | other results
1 | O=P(O)(O)C(O)(Cc1cccc(F)c1)P(=O)(O)O [Compound 7] | 5.2 | – | –
2 | O=P(O)(O)C(Nc1nccs1)P(=O)(O)O [Compound 19] | – | 0.794 | –
3 | Cc1ccc(C)c(COc2ccc(C)nc2NC(P(=O)(O)O)P(=O)(O)O)c1 [Compound 25] | 3.7 | – | –
4 | O=P(O)(O)C(O)(CSc1ccncc1)P(=O)(O)O [Compound 22] | 3.8 | – | –
5 | O=P(O)(O)C(O)(Cc1ccccc1)P(=O)(O)O [Compound 9] | 5.0 | – | –
6 | CCCCCCC(O)(P(=O)(O)O)P(=O)(O)O [Compound 1] | 5.9 | – | –
7 | CN(CCCc1ccccc1)CCC(O)(P(=O)(O)O)P(=O)(O)O [Compound 13] | 4.6 | – | IC50 (Plasmodium falciparum): 23 µM
8 | CN(CCCCc1ccccc1)CCC(O)(P(=O)(O)O)P(=O)(O)O [Compound 3] | 5.5 | – | IC50 (Plasmodium falciparum): 2.9 µM
9 | CCCCCCCCCCCCCC(O)(P(=O)(O)O)P(=O)(O)O [Compound 2] | 5.7 | – | –
10 | O=P(O)(O)C(O)(Cc1cccc(C(F)(F)F)c1)P(=O)(O)O [Compound 5] | 5.4 | 0.631 | –
11 | O=P(O)(O)C(Nc1ccc(Cl)cn1)P(=O)(O)O [Compound 8] | 5.0 | – | IC50 (Plasmodium falciparum): 11 µM
12 | O=P(O)(O)C(O)(Cc1cccc(Cl)c1)P(=O)(O)O [Compound 6] | 5.4 | – | –
13 | O=P(O)(O)C(O)(Cc1ccccn1)P(=O)(O)O [Compound 26] | 3.7 | – | IC50 [1]: 1 µM
14 | CN(Cc1ccccc1)C(P(=O)(O)O)P(=O)(O)O [Compound 24] | 3.7 | 0.794 | –
15 | O=P(O)(O)C(O)(Cc1cccc(Br)c1)P(=O)(O)O [Compound 11] | – | 0.794 | –
16 | CCCCCCCCCC(O)(P(=O)(O)O)P(=O)(O)O [Compound 4] | – | 0.794 | –
